Reference: PubChem BioAssay AID2060883 (Molecular Pharmacology Branch, DTP, NCI, 2025)
One block for each compound: values may come before it.

Test system: 843782-103-R-J1-PDC complex spheroid viability
Assay: Anticancer human tumor 843782-103-R-J1-PDC patient-derived lung adenocarcinoma cell line growth inhibition [RAS]
Settings: for IC50: curve of first compound; for viability, T/C: stronger effect = lower value
Procedure, shortened: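 Multi-cell-type spheroids: tumor cells plus HUVEC endothelial cells and mesenchymal stem cells. RAS-pathway inhibitors were combined with targeted agents, each dosed in half-log steps down from clinical Cmax, or from 10 microM when Cmax was unknown.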
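Further: viability read after seven days of compound exposure.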

IC50 (second compound 0.0316 µM): 8.65 µM
IC50 (second compound 0.1 µM): 5.42 µM
IC50 (second compound 0.316 µM): 4.69 µM
IC50 (second compound 1 µM): 0.536 µM
IC50 (second compound 3.16 µM): 0.141 µM
IC50 (second compound 10 µM): < 0.0316 µM
SMILES: Cc1nc(N2CCC3(CC2)COC(C)C3N)c(CO)nc1Sc1ccnc(N)c1Cl (centres undefined) + C#Cc1c(F)ccc2cc(O)cc(-c3ncc4c(N5CC6CCC(C5)N6)nc(OCC56CCCN5CC(F)C6)nc4c3F)c12
viability, T/C (second compound 0.0316 µM, first compound 0.0316 µM): 107%
viability, T/C (second compound 0.0316 µM, first compound 0.1 µM): 102%
viability, T/C (second compound 0.0316 µM, first compound 0.316 µM): 85.6%
viability, T/C (second compound 0.0316 µM, first compound 1 µM): 77.2%
viability, T/C (second compound 0.0316 µM, first compound 3.16 µM): 68.2%
viability, T/C (second compound 0.0316 µM, first compound 10 µM): 45.8%
viability, T/C (second compound 0.1 µM, first compound 0.0316 µM): 105%
viability, T/C (second compound 0.1 µM, first compound 0.1 µM): 98%
viability, T/C (second compound 0.1 µM, first compound 0.316 µM): 83.1%
viability, T/C (second compound 0.1 µM, first compound 1 µM): 72.6%
viability, T/C (second compound 0.1 µM, first compound 3.16 µM): 54.3%
viability, T/C (second compound 0.1 µM, first compound 10 µM): 44%
viability, T/C (second compound 0.316 µM, first compound 0.0316 µM): 100%
viability, T/C (second compound 0.316 µM, first compound 0.1 µM): 91.4%
viability, T/C (second compound 0.316 µM, first compound 0.316 µM): 79.5%
viability, T/C (second compound 0.316 µM, first compound 1 µM): 65.9%
viability, T/C (second compound 0.316 µM, first compound 3.16 µM): 50.6%
viability, T/C (second compound 0.316 µM, first compound 10 µM): 46.2%
viability, T/C (second compound 1 µM, first compound 0.0316 µM): 96%
viability, T/C (second compound 1 µM, first compound 0.1 µM): 80.9%
viability, T/C (second compound 1 µM, first compound 0.316 µM): 60%
viability, T/C (second compound 1 µM, first compound 1 µM): 39.5%
viability, T/C (second compound 1 µM, first compound 3.16 µM): 29.6%
viability, T/C (second compound 1 µM, first compound 10 µM): 32.1%
viability, T/C (second compound 3.16 µM, first compound 0.0316 µM): 82.6%
viability, T/C (second compound 3.16 µM, first compound 0.1 µM): 54.5%
viability, T/C (second compound 3.16 µM, first compound 0.316 µM): 39.4%
viability, T/C (second compound 3.16 µM, first compound 1 µM): 27.9%
viability, T/C (second compound 3.16 µM, first compound 3.16 µM): 27.4%
viability, T/C (second compound 3.16 µM, first compound 10 µM): 23.4%
viability, T/C (second compound 10 µM, first compound 0.0316 µM): 49.2%
viability, T/C (second compound 10 µM, first compound 0.1 µM): 32.2%
viability, T/C (second compound 10 µM, first compound 0.316 µM): 30.9%
viability, T/C (second compound 10 µM, first compound 1 µM): 25.4%
viability, T/C (second compound 10 µM, first compound 3.16 µM): 21.6%
viability, T/C (second compound 10 µM, first compound 10 µM): 21.2%

IC50 (second compound 0.000949 µM): < 0.0316 µM
IC50 (second compound 0.003 µM): < 0.0316 µM
IC50 (second compound 0.00949 µM): < 0.0316 µM
IC50 (second compound 0.03 µM): < 0.0316 µM
IC50 (second compound 0.0949 µM): < 0.0316 µM
IC50 (second compound 0.3 µM): < 0.0316 µM
SMILES: CC(=O)OC12COC1CC(O)C1(C)C(=O)C(O)C3=C(C)C(OC(=O)C(O)C(NC(=O)OC(C)(C)C)c4ccccc4)CC(O)(C(OC(=O)c4ccccc4)C21)C3(C)C (centres undefined) + CCn1c(-c2cc(N3CCN(C)CC3)cnc2C(C)OC)c2c3cc(ccc31)-c1csc(n1)CC(NC(=O)C1CC1C)C(=O)N1CCCC(N1)C(=O)OCC(C)(C)C2
viability, T/C (second compound 0.000949 µM, first compound 0.0316 µM): 4.09%
viability, T/C (second compound 0.000949 µM, first compound 0.1 µM): 3.3%
viability, T/C (second compound 0.000949 µM, first compound 0.316 µM): 4.43%
viability, T/C (second compound 0.000949 µM, first compound 1 µM): 4.14%
viability, T/C (second compound 0.000949 µM, first compound 3.16 µM): 4.74%
viability, T/C (second compound 0.000949 µM, first compound 10 µM): 5.86%
viability, T/C (second compound 0.003 µM, first compound 0.0316 µM): 3.09%
viability, T/C (second compound 0.003 µM, first compound 0.1 µM): 3.12%
viability, T/C (second compound 0.003 µM, first compound 0.316 µM): 3.99%
viability, T/C (second compound 0.003 µM, first compound 1 µM): 3.29%
viability, T/C (second compound 0.003 µM, first compound 3.16 µM): 6.91%
viability, T/C (second compound 0.003 µM, first compound 10 µM): 8.55%
viability, T/C (second compound 0.00949 µM, first compound 0.0316 µM): 4.74%
viability, T/C (second compound 0.00949 µM, first compound 0.1 µM): 4.97%
viability, T/C (second compound 0.00949 µM, first compound 0.316 µM): 5.9%
viability, T/C (second compound 0.00949 µM, first compound 1 µM): 4.93%
viability, T/C (second compound 0.00949 µM, first compound 3.16 µM): 5.8%
viability, T/C (second compound 0.00949 µM, first compound 10 µM): 8.1%
viability, T/C (second compound 0.03 µM, first compound 0.0316 µM): 5.08%
viability, T/C (second compound 0.03 µM, first compound 0.1 µM): 4.74%
viability, T/C (second compound 0.03 µM, first compound 0.316 µM): 7.03%
viability, T/C (second compound 0.03 µM, first compound 1 µM): 5.84%
viability, T/C (second compound 0.03 µM, first compound 3.16 µM): 6.77%
viability, T/C (second compound 0.03 µM, first compound 10 µM): 7.36%
viability, T/C (second compound 0.0949 µM, first compound 0.0316 µM): 6.75%
viability, T/C (second compound 0.0949 µM, first compound 0.1 µM): 7.55%
viability, T/C (second compound 0.0949 µM, first compound 0.316 µM): 6%
viability, T/C (second compound 0.0949 µM, first compound 1 µM): 8.09%
viability, T/C (second compound 0.0949 µM, first compound 3.16 µM): 7.2%
viability, T/C (second compound 0.0949 µM, first compound 10 µM): 7.32%
viability, T/C (second compound 0.3 µM, first compound 0.0316 µM): 6.51%
viability, T/C (second compound 0.3 µM, first compound 0.1 µM): 6.53%
viability, T/C (second compound 0.3 µM, first compound 0.316 µM): 8.66%
viability, T/C (second compound 0.3 µM, first compound 1 µM): 8.26%
viability, T/C (second compound 0.3 µM, first compound 3.16 µM): 9.04%
viability, T/C (second compound 0.3 µM, first compound 10 µM): 7.8%
